Results: patent publication US20200031778A1, “NOVEL 5-SUBSTITUTED IMIDAZOLYLMETHYL DERIVATIVES” (Bayer CropScience Aktiengesellschaft, priority 2016, published 2020)

Experiment: Log P by HPLC on reversed phase columns (EEC directive 79/831 Annex V.A8; methods [a], [b], [c])
Assay type: physicochemical
Settings: not given
How it was run: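 Reversed-phase HPLC with LC-UV detection, 10→95% acetonitrile linear gradient; aqueous eluent 0.1% formic acid [a], 0.001 M ammonium acetate, neutral [b], or 0.1% phosphoric acid [c]. Calibrated against C3–C16 alkan-2-ones of known Log P by retention-time linear interpolation; multiple values within a method separated by "+".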

SMILES | LogP
N#Cc1cncn1CC(O)(C#CC1CC1)C1(Cl)CC1 (stereo not shown) [I-692] | 2.11^[a]
CC(O)(Cn1cncc1F)c1ccc(Oc2ccc(Cl)cc2)cc1C(F)(F)F (stereo not shown) [I-211] | 2.64^[a]
CC(C)(C)CC(O)(Cn1cncc1C#N)c1ccc(Cl)cc1F (stereo not shown) [I-260] | 3.44^[a]
COC(Cn1cncc1C#N)c1ccc(Oc2ccc(Br)cc2)cc1F (stereo not shown) [I-55] | 3.79^[a]
N#Cc1cncn1CC(O)(c1cccc(F)c1Cl)C1(Cl)CC1 (stereo not shown) [I-557] | 2.25^[a]
N#Cc1cncn1CC(O)(c1c(F)ccc(Cl)c1Cl)C1(F)CC1 (stereo not shown) [I-565] | 2.39^[a]
CCCCC(O)(Cn1cncc1C#N)c1ccc(F)cc1F (stereo not shown) [I-262] | 2.73^[a]
N#Cc1cncn1CC(O)(c1ccc(F)c(Br)c1F)C1(F)CC1 (stereo not shown) [I-625] | 2.35^[a]
OC(Cn1cncc1Br)c1ccc(Oc2ccc(C(F)(F)F)cc2)cc1C(F)(F)F (stereo not shown) [I-38] | 2.96^[a]
N#Cc1cncn1CC(O)(c1ccc(F)cc1Br)C1CCC1 (stereo not shown) [I-449] | 2.86^[a]
N#Cc1cncn1CC(O)(c1cc(F)cc(Cl)c1)C1(F)CC1 (stereo not shown) [I-474] | 2.38^[a]
C[Si](C)(C)C#CC(O)(Cn1cncc1C#N)C1(F)CC1 (stereo not shown) [I-600] | 2.45^[a]
CC(O)(Cn1cncc1C#N)c1cnc(Oc2ccc(C(F)(F)F)cc2)cc1Br (stereo not shown) [I-253] | 3.27^[a]
N#Cc1cncn1CC(O)(c1cc(Cl)cc(Cl)c1)C1(F)CC1 (stereo not shown) [I-472] | 2.67^[a]
CCCCC(O)(Cn1cncc1C#N)c1ccc(F)cc1Cl (stereo not shown) [I-276] | 2.95^[a]
N#Cc1cncn1CC(O)(c1cc(Cl)c(F)c(Cl)c1)C1(F)CC1 (stereo not shown) [I-477] | 2.74^[a]
N#Cc1cncn1CC(O)(c1ccc(Cl)c(Br)c1)C1(F)CC1 (stereo not shown) [I-538] | 2.71^[a]
N#Cc1cncn1CC(O)(c1ccc(C#CC2CCCC2)cc1Cl)C1(Cl)CC1 (stereo not shown) [I-656] | 4.15^[a]
CC(C)CCCC(O)(Cn1cncc1C#N)C1(F)CC1 (stereo not shown) [I-671] | 2.82^[a]
N#Cc1cncn1CC(O)c1cnc(Oc2ccc(Cl)cc2)cc1C(F)(F)F (stereo not shown) [I-120] | 2.87^[a]
N#Cc1cncn1CC(O)(c1cc(F)cc(Cl)c1F)C1(Cl)CC1 (stereo not shown) [I-610] | 2.49^[a]
C#Cc1ccc(C(O)(Cn2cncc2C#N)C2(F)CC2)c(F)c1 (stereo not shown) [I-647] | 2.21^[a]

SMILES | LogP
CCCCC(O)(Cn1cncc1C#N)c1ccccc1Cl (stereo not shown) [I-282] | 2.80^[a]
N#Cc1cncn1CC(O)(c1ccc(Cl)nc1F)C1(F)CC1 (stereo not shown) [I-552] | 1.96^[a]
N#Cc1cncn1CC(O)(C#CC1(c2ccc(F)cc2)CC1)C1(Cl)CC1 (stereo not shown) [I-605] | 2.98^[a]
N#Cc1cncn1CC(O)(c1ccc(F)nc1F)C1(F)CC1 (stereo not shown) [I-551] | 1.79^[a]
N#Cc1cncn1CC(O)(c1c(F)ccc(Cl)c1F)C1(Cl)CC1 (stereo not shown) [I-622] | 2.47^[a]
CC(O)(Cn1cncc1Br)c1ccc(Oc2ccc(Cl)cc2)cc1C(F)(F)F (stereo not shown) [I-193] | 2.76^[a]
CC(C)(C)CC(O)(Cn1cncc1C#N)c1ccc(F)cc1F (stereo not shown) [I-238] | 3.06^[a]
CC(O)(Cn1cncc1Cl)c1cnc(Oc2ccc(Cl)cc2)cc1Br (stereo not shown) [I-177] | 2.48^[a]
COC(C)(Cn1cncc1Br)c1ccc(Oc2ccc(Cl)cc2)cc1C(F)(F)F (stereo not shown) [I-201] | 3.76^[a]
OC(Cn1cncc1Br)c1ccc(Oc2ccc(Cl)cc2)cc1Br (stereo not shown) [I-24] | 2.68^[a]
OC(Cn1cncc1Cl)c1ccc(Oc2ccc(Br)cc2)cc1Br (stereo not shown) [I-45] | 2.71^[a]
OC(Cn1cncc1Cl)c1ccc(Oc2ccc(I)cc2)cc1Br (stereo not shown) [I-101] | 2.80^[a]
N#Cc1cncn1CC(O)c1ccc(Oc2ccc(Cl)cc2)cc1F (stereo not shown) [I-54] | 2.94^[a]
COc1nc(Cl)ccc1C(O)(Cn1cncc1C#N)C1(Cl)CC1 (stereo not shown) [I-561] | 2.51^[a]
N#Cc1cncn1CC(O)(c1cc(F)cc(F)c1Cl)C1(F)CC1 (stereo not shown) [I-569] | 2.26^[a]
N#Cc1cncn1CC(O)(c1ccc(Cl)nc1Cl)C1(Cl)CC1 (stereo not shown) [I-597] | 2.12^[a]
OC(Cn1cncc1Cl)c1ccc(Oc2ccccc2)cc1F (stereo not shown) [I-30] | 1.99^[a]
N#Cc1cncn1CC(O)(CC1CC1)c1cc(F)c(F)c(Cl)c1 (stereo not shown) [I-492] | 2.71^[a]
N#Cc1cncn1CC(O)(c1ccc(C#CC2CCCC2)cc1Cl)C1(F)CC1 (stereo not shown) [I-640] | 4.01^[a]
N#Cc1cncn1CC(O)(CC1CC1)c1c(F)cc(Cl)cc1F (stereo not shown) [I-512] | 2.67^[a]
N#Cc1cncn1CC(O)(C#Cc1ccc(C(F)(F)F)cc1)C1(Cl)CC1 (stereo not shown) [I-350] | 3.09^[a]
OC(Cn1cncc1Cl)c1ccc(Oc2cccnc2)cc1Cl (stereo not shown) [I-78] | 1.13^[a]

SMILES | LogP
N#Cc1cncn1CC(O)(CC1CC1)c1ccc(Br)cc1Br (stereo not shown) [I-429] | 2.82^[a]
OC(Cn1cncc1F)(c1ccc(Br)cc1Cl)C1(F)CC1 (stereo not shown) [I-430] | 1.76^[a]
N#Cc1cncn1CC(O)(CC1CC1)c1cc(F)c(Cl)c(F)c1 (stereo not shown) [I-499] | 2.73^[a]
C#CC(O)(Cn1cncc1C#N)C1(F)CC1 (stereo not shown) [I-654] | 1.11^[a]
CC(O)(Cn1cncc1C#N)c1cnc(Oc2ccc(Cl)cc2F)cc1C(F)(F)F (stereo not shown) [I-233] | 3.29^[a]
CC(C)(C)CC(O)(Cn1cncc1C#N)c1ccc2occc2c1 (stereo not shown) [I-369] | 2.88^[a]
CC(C)(C)c1ccc(C#CC(O)(Cn2cncc2C#N)C2(F)CC2)cc1 (stereo not shown) [I-372] | 3.39^[a]
N#Cc1cncn1CC(O)(c1ccc(F)cc1Br)C1(F)CC1 (stereo not shown) [I-357] | 2.31^[a]
OC(C#CCC1CCCCC1)(Cn1cncc1C(F)(F)F)C1(Cl)CC1 (stereo not shown) [I-601] | 4.05^[a]
CCCC(C)C(O)(Cn1cncc1C#N)c1ccc(Cl)cc1Cl (single isomer, unassigned) [I-315] | 3.63^[a]
N#Cc1cncn1CC(O)(CC1CC1)c1ccc(F)c(Br)c1 (stereo not shown) [I-496] | 2.56^[a]
N#Cc1cncn1CC(O)(c1cc(F)c(F)c(Cl)c1)C1(F)CC1 (stereo not shown) [I-476] | 2.54^[a]
N#Cc1cncn1CC(O)(c1c(F)cc(F)cc1Cl)C1(F)CC1 (stereo not shown) [I-574] | 2.23^[a]
N#Cc1cncn1CC(O)c1ccc(Oc2ccc(Cl)cc2)cc1Cl (stereo not shown) [I-22] | 3.19^[a]
N#Cc1cncn1CC(O)(c1ccc(Cl)cc1Br)C1(F)CC1 (stereo not shown) [I-386] | 2.66^[a]
CCCC#Cc1ccc(C(O)(Cn2cncc2C#N)C2(Cl)CC2)c(Cl)c1 (stereo not shown) [I-655] | 3.65^[a]
CCCC(O)(Cn1cncc1C#N)c1ccc(Cl)cc1F (stereo not shown) [I-401] | 2.78^[a]
N#Cc1cncn1CC(O)(CCC1CCCCC1)C1(F)CC1 (stereo not shown) [I-662] | 3.19^[a]
N#Cc1cncn1CC(O)(C#Cc1ccc(Cl)cc1)C1(Cl)CC1 (stereo not shown) [I-322] | 2.96^[a]
N#Cc1cncn1CC(O)(c1c(F)cc(F)cc1Br)C1(F)CC1 (stereo not shown) [I-547] | 2.27^[a]
CCCCC(O)(Cn1cncc1C#N)c1ccc(C(F)(F)F)cc1 (stereo not shown) [I-277] | 2.94^[a]
COc1ccc(C(O)(Cn2cncc2C#N)CC(C)(C)C)c(Cl)c1 (stereo not shown) [I-367] | 3.21^[a]

SMILES | LogP
N#Cc1cncn1CC(O)(c1cc(Br)c(F)cc1F)C1(F)CC1 (stereo not shown) [I-573] | 2.47^[a]
CC(C)(C)C(O)(Cn1cncc1C#N)c1ccc(F)c(F)c1 (stereo not shown) [I-483] | 2.66^[a]
CCCCC(O)(Cn1cncc1C#N)c1ccc(Cl)cc1Cl (stereo not shown) [I-261] | 3.41^[a]
CC(O)(Cn1cncc1Br)c1ccc(Oc2ccc(Cl)cc2)cc1Cl (stereo not shown) [I-198] | 2.75^[a]
N#Cc1cncn1CC(O)(CC1CCCCC1)c1ccc(Cl)cc1F (stereo not shown) [I-468] | 3.80^[a]
CCc1ccc(C(O)(Cn2cncc2C#N)C2(Cl)CC2)c(Cl)c1 (stereo not shown) [I-353] | 2.86^[a]
OC(Cn1cncc1F)(c1ccc(Cl)cc1F)C1(F)CC1 (stereo not shown) [I-437] | 1.57^[a]
CC(O)(Cn1cncc1C#N)c1ccc(Oc2ccc(C(F)(F)F)cc2)nc1C(F)(F)F (stereo not shown) [I-312] | 3.25^[a]
CC(C)(C)CC(O)(Cn1cncc1C#N)c1ccc(Br)cc1Cl (stereo not shown) [I-334] | 2.83^[a]
CCOC(Cn1cncc1C#N)c1ccc(Oc2ccc(Br)cc2)cc1Br (stereo not shown) [I-64] | 4.64^[a]
CCCCC(O)(Cn1cncc1C#N)c1ccc(OC(F)(F)F)cc1 (stereo not shown) [I-265] | 3.25^[a]
N#Cc1cncn1CC(O)(c1ccc(C(F)(F)F)cc1Br)C1(F)CC1 (stereo not shown) [I-435] | 2.78^[a]
C=CCC(O)(Cn1cncc1C#N)C1(F)CC1 (stereo not shown) [I-664] | 1.56^[a]
N#Cc1cncn1CC(O)(c1cc(Cl)c(Cl)cc1F)C1(Cl)CC1 (stereo not shown) [I-621] | 2.80^[a]
N#Cc1cncn1CC(O)(c1ccc(F)c(Br)c1F)C1(Cl)CC1 (stereo not shown) [I-616] | 2.54^[a]
N#Cc1cncn1CC(O)(c1ccc(/C=C/C2CC2)cc1Cl)C1(Cl)CC1 (stereo not shown) [I-365] | 3.37^[a]
N#Cc1cncn1CC(O)(c1ccc(F)cc1Br)C1(Cl)CC1 (stereo not shown) [I-387] | 2.48^[a]
OC(Cn1cncc1F)c1cnc(Oc2ccc(Cl)cc2F)cc1C(F)(F)F (stereo not shown) [I-113] | 2.35^[a]
N#Cc1cncn1CC(O)(c1ccccc1C(F)(F)F)C1(Cl)CC1 (stereo not shown) [I-344] | 2.35^[a]
CC(O)(Cn1cncc1F)c1ccc(Oc2ccc(S(F)(F)(F)(F)F)cc2)nc1C(F)(F)F (stereo not shown) [I-297] | 2.62^[a]

Same assay, conditions: HPLC on reversed phase columns, method [a]

SMILES | chromatographic logP
C[Si](C)(C)C#CCOc1ccc(C(O)(Cn2cncc2C#N)C2(F)CC2)c(F)c1 (stereo not shown) [I-415, 3-[2-(1-fluorocyclopropyl)-2-[2-fluoro-4-(3-trimethylsilylprop-2-ynoxy)phenyl]-2-hydroxy-ethyl]imidazole-4-carbonitrile] | 3.68

Same assay, conditions: reversed phase HPLC column; method [a], HPLC on reversed phase columns

SMILES | chromatographic logP
N#Cc1cncn1CC(O)(CCC1CCCCC1)C1(Cl)CC1 (stereo not shown) [I-660, 1-[2-(1-chlorocyclopropyl)-4-cyclohexyl-2-hydroxybutyl]-1H-imidazole-5-carbonitrile] | 3.79

Same assay, conditions: reversed phase HPLC column; method [a]: LC-UV, acidic range, 0.1% formic acid in water and acetonitrile as eluent (linear gradient from 10% to 95% acetonitrile)

SMILES | chromatographic logP
O=C(Cn1cncc1Cl)c1ccc(Oc2ccc(Cl)cn2)cc1 [IX-02] | 2.12
O=Cc1ccc(Oc2ccc(C(=O)Cn3cncc3F)c(Cl)n2)cc1 [IX-85] | 1.59
CC(=O)c1cncn1CC(=O)c1cnc(Oc2ccc(Cl)cc2F)cc1C(F)(F)F [IX-102] | 3.21
